Data as given in patent publication US10669235B2, “Indole derivatives and their use as protein kinase inhibitors” (RESPIVERT LIMITED, priority 2016, dated 2020).
Where a name gives a salt, the structure may show the parent alone.

Experiments:
MRC5 cells = assay: Cell viability assay in MRC5 cells (MTT)
PDGFRβ [1] = target: T1, PDGFRβ (Homo sapiens (Human), UniProt P09619); assay: PDGFRβ enzyme inhibition (ADP-Glo assay); type: biochemical; conditions: mean, n = 2 (nintedanib n = 34)
PDGFRβ [2] = target: T1, PDGFRβ; assay: PDGF-BB induced phosphorylation of PDGFRβ in fibroblasts (MRC5, HTRF); type: cell-based; conditions: MRC5 cells, PDGFBB stimulation; read-out: PDGFBB-induced PDGFRβ phosphorylation in MRC5 cells (IC50)
PAMPA permeability assay = type: in vitro ADME; conditions: pH 7, PAMPA; for Papp at 5 h, 10 µM: pH 7, 10 μM

T1 sequence (P09619 33-1106): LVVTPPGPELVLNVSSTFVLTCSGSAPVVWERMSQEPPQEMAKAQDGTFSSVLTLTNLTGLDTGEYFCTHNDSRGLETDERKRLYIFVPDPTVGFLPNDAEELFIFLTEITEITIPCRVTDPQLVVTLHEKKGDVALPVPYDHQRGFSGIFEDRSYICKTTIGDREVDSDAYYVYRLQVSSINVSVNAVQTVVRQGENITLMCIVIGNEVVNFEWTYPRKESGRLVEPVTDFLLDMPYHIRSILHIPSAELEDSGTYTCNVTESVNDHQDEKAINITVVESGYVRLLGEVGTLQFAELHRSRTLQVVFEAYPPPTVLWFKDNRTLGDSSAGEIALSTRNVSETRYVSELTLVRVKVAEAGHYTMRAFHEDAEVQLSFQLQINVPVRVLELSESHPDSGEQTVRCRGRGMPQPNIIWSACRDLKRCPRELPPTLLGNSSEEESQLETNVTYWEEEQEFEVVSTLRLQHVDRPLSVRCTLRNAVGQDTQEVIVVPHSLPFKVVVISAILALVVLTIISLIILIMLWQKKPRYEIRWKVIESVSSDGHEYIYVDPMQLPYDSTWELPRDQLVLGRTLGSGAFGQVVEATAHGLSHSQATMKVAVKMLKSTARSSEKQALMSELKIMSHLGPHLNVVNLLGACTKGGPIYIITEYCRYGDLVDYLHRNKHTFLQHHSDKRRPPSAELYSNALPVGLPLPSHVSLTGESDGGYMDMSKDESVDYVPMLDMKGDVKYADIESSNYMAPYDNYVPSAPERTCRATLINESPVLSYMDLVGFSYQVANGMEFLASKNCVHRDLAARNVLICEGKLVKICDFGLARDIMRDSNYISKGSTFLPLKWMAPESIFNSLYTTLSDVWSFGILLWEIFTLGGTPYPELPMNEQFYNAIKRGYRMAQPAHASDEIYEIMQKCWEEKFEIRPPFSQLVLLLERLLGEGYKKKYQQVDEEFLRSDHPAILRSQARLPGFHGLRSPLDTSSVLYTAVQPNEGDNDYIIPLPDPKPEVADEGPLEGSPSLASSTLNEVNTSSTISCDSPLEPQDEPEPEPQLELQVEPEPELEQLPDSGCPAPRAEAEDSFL

SMILES: COC(=O)c1cc2c(cc1C)/C(=C(/Nc1ccc(C(=O)NCC3(N(C)C)CCOCC3)cc1)c1ccccc1)C(=O)N2 [Example 36, (Z)-Methyl 3-(((4-(((4-(dimethylamino)tetrahydro-2H-pyran-4-yl)methyl)carbamoyl)phenyl)amino)(phenyl)methylene)-5-methyl-2-oxoindoline-6-carboxylate]
- Cell viability at 100 nM (%) (MRC5 cells): 87.3%
- Cell viability at 300 nM (%) (MRC5 cells): 77.2%
- Cell viability at 1000 nM (%) (MRC5 cells): 69.6%
- Ki (PDGFRβ [1]): 15.9 nM
- IC50 (PDGFRβ [2]): 9.96 nM
- recovery at 5 hr, 10 μM (PAMPA permeability assay): 77.4%
- Papp at 5 h, 10 µM (PAMPA permeability assay): 8.96 ×10⁻⁶ cm/s

SMILES: COC(=O)c1cc2c(cc1C)/C(=C(/Nc1ccc(C(=O)N3CCC(O)(CN4CCCC4)CC3)cc1)c1ccccc1)C(=O)N2 [Example 37, (Z)-Methyl-3-(((4-(4-hydroxy-4-(pyrrolidin-1-ylmethyl)piperidine-1-carbonyl)phenyl)amino)(phenyl)methylene)-5-methyl-2-oxoindoline-6-carboxylate, formate]
- Cell viability at 100 nM (%) (MRC5 cells): 93.6%
- Cell viability at 300 nM (%) (MRC5 cells): 83.4%
- Cell viability at 1000 nM (%) (MRC5 cells): 18.4%
- Ki (PDGFRβ [1]): 7.54 nM
- IC50 (PDGFRβ [2]): 5.28 nM
- recovery at 5 hr, 10 μM (PAMPA permeability assay): 68.2%
- Papp at 5 h, 10 µM (PAMPA permeability assay): 0.0542 ×10⁻⁶ cm/s

SMILES: COC(=O)c1cc2c(cc1C)/C(=C(/Nc1ccc(C(=O)N3CCC(CO)(CN(C)C)CC3)cc1)c1ccccc1)C(=O)N2 [Example 38, (Z)-Methyl-3-(((4-(4-((dimethylamino)methyl)-4-(hydroxymethyl)piperidine-1-carbonyl)phenyl)amino)(phenyl)methylene)-5-methyl-2-oxoindoline-6-carboxylate]
- Cell viability at 100 nM (%) (MRC5 cells): 70.7%
- Cell viability at 300 nM (%) (MRC5 cells): 63%
- Cell viability at 1000 nM (%) (MRC5 cells): 4.2%
- Ki (PDGFRβ [1]): 4.79 nM
- IC50 (PDGFRβ [2]): 1.7 nM
- recovery at 5 hr, 10 μM (PAMPA permeability assay): 70.3%
- Papp at 5 h, 10 µM (PAMPA permeability assay): 0.0269 ×10⁻⁶ cm/s

SMILES: COCCNC(=O)CN1CCN(C(=O)c2ccc(N/C(=C3\C(=O)Nc4cc(C(=O)OC)c(C)cc43)c3ccccc3)cc2)CC1 [Example 39, (Z)-Methyl-3-(((4-(4-(2-((2-methoxyethyl)amino)-2-oxoethyl)piperazine-1-carbonyl)phenyl)amino)(phenyl)methylene)-5-methyl-2-oxoindoline-6-carboxylate]
- Cell viability at 100 nM (%) (MRC5 cells): 96.2%
- Cell viability at 300 nM (%) (MRC5 cells): 73.3%
- Cell viability at 1000 nM (%) (MRC5 cells): 36.7%
- Ki (PDGFRβ [1]): 14.1 nM
- IC50 (PDGFRβ [2]): 5.95 nM
- recovery at 5 hr, 10 μM (PAMPA permeability assay): 85.7%
- Papp at 5 h, 10 µM (PAMPA permeability assay): 0.633 ×10⁻⁶ cm/s

SMILES: COC(=O)c1cc2c(cc1C)/C(=C(/Nc1ccc(C(=O)NCC3(N(C)C)CCC3)cc1)c1ccccc1)C(=O)N2 [Example 40, (Z)-Methyl 3-(((4-(((1-(dimethylamino)cyclobutyl)methyl)carbamoyl)phenyl)amino)(phenyl)methylene)-5-methyl-2-oxoindoline-6-carboxylate, 0.3 formate]
- Cell viability at 100 nM (%) (MRC5 cells): 95.4%
- Cell viability at 300 nM (%) (MRC5 cells): 88%
- Cell viability at 1000 nM (%) (MRC5 cells): 82.9%
- Ki (PDGFRβ [1]): 12.8 nM
- IC50 (PDGFRβ [2]): 13.4 nM
- recovery at 5 hr, 10 μM (PAMPA permeability assay): 56%
- Papp at 5 h, 10 µM (PAMPA permeability assay): 26.5 ×10⁻⁶ cm/s

SMILES: COC(=O)c1cc2c(cc1C)/C(=C(/Nc1ccc(C(=O)N3CCC4(CC3)C(=O)NCCCN4C)cc1)c1ccccc1)C(=O)N2 [Example 43, (Z)-Methyl-5-methyl-3-(((4-(7-methyl-12-oxo-3,7,11-triazaspiro[5.6]dodecane-3-carbonyl)phenyl)amino)(phenyl)methylene)-2-oxoindoline-6-carboxylate]
- Cell viability at 300 nM (%) (MRC5 cells): 58.8%
- Cell viability at 1000 nM (%) (MRC5 cells): 6.4%
- Ki (PDGFRβ [1]): 25.2 nM
- IC50 (PDGFRβ [2]): 2.31 nM
- Papp at 5 h, 10 µM (PAMPA permeability assay): 0.865 ×10⁻⁶ cm/s

SMILES: COC(=O)c1cc2c(cc1C)/C(=C(/Nc1ccc(C(=O)NCCN3CCN(S(C)(=O)=O)CC3)cc1)c1ccccc1)C(=O)N2 [Example 44, (Z)-Methyl-5-methyl-3-(((4-((2-(4-(methylsulfonyl)piperazin-1-yl)ethyl)carbamoyl)phenyl)amino)(phenyl)methylene)-2-oxoindoline-6-carboxylate]
- Cell viability at 100 nM (%) (MRC5 cells): 98.4%
- Cell viability at 300 nM (%) (MRC5 cells): 78.4%
- Cell viability at 1000 nM (%) (MRC5 cells): 60.4%
- Ki (PDGFRβ [1]): 17.8 nM
- IC50 (PDGFRβ [2]): 3.33 nM
- recovery at 5 hr, 10 μM (PAMPA permeability assay): 71.7%
- Papp at 5 h, 10 µM (PAMPA permeability assay): 0.00879 ×10⁻⁶ cm/s

SMILES: COC(=O)c1cc2c(cc1C)/C(=C(/Nc1ccc(C(=O)N3CCC(O)(CN4CCOCC4)CC3)cc1)c1ccccc1)C(=O)N2 [Example 45, (Z)-Methyl-3-(((4-(4-hydroxy-4-(morpholinomethyl)piperidine-1-carbonyl)phenyl)amino)(phenyl)methylene)-5-methyl-2-oxoindoline-6-carboxylate]
- Cell viability at 100 nM (%) (MRC5 cells): 80.1%
- Cell viability at 300 nM (%) (MRC5 cells): 71.7%
- Cell viability at 1000 nM (%) (MRC5 cells): 62.8%
- Ki (PDGFRβ [1]): 15.1 nM
- IC50 (PDGFRβ [2]): 2.42 nM
- recovery at 5 hr, 10 μM (PAMPA permeability assay): 77%
- Papp at 5 h, 10 µM (PAMPA permeability assay): 0.0893 ×10⁻⁶ cm/s
